Results reported in US7294637B2 (Sepracor, Inc., priority 2000, dated 2007).
Where two headings read alike, the source gives them in different places.

Experiments:
[1] = biological target: T1, norepinephrine transporter (Homo sapiens, UniProt P23975); test: Functional activity, norephinephrine uptake inhibition in MDCK cell lines; format: cell-based
serotonin transporter [2] = biological target: T2, serotonin transporter (Homo sapiens, UniProt P31645); test: Functional activity, serotonin uptake inhibition in human HEK-293 cell lines; format: cell-based; parameters: expressed in transfected cells; host or cells: HEK-293
T2 sequence (P31645 whole entry): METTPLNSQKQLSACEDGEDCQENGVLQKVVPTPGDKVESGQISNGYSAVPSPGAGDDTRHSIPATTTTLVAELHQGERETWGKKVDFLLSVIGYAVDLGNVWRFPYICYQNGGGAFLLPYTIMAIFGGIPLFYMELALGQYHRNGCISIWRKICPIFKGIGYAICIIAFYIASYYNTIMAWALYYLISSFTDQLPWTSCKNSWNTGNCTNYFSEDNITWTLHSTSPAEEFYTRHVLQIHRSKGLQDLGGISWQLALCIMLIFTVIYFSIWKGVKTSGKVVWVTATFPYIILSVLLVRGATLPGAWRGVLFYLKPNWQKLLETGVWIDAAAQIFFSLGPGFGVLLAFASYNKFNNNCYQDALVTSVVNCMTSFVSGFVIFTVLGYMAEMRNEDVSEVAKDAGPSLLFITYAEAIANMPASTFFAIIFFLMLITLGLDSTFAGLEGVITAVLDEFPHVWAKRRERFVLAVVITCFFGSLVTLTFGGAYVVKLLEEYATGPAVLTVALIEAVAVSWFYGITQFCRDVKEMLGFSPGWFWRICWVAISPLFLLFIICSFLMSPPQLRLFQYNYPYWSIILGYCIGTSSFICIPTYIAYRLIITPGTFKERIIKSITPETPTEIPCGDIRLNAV

DAT = DAT (Homo sapiens, UniProt Q01959); test: cell-based; parameters: expressed in transfected cells; details: hDAT cell line; read-out: DA Uptake, Functional Assays (antagonism, EC50)
Sequence of DAT (Q01959 whole entry): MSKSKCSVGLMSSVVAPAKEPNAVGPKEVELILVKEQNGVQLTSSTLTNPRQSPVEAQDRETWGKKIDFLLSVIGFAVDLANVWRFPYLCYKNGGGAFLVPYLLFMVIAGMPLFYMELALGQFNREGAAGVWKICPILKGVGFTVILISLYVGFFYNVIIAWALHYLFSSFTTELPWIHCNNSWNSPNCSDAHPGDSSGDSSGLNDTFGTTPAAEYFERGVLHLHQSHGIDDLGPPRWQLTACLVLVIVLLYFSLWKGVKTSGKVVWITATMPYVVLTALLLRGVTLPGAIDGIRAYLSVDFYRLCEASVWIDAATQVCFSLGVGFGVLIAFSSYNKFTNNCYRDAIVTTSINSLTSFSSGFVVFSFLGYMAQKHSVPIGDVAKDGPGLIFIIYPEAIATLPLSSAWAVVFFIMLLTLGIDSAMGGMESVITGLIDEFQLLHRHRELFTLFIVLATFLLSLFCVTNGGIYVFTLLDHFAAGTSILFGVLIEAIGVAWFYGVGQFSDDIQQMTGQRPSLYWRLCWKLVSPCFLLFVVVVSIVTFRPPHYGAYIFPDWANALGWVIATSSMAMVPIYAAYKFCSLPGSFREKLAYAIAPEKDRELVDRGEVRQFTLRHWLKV

serotonin transporter [3] = biological target: T2, serotonin transporter; test: 5-HT uptake: displacement of serotonin ligands in vitro (methods of Gu et al.); format: binding
[4] = biological target: T1, norepinephrine transporter; test: NE uptake: displacement of norephinephrine ligands in vitro (methods of Galli et al.); format: binding
dopamine transporter = dopamine transporter (Homo sapiens, UniProt Q01959); test: DA uptake: displacement of dopamine ligands in vitro (methods of Gu et al.)
Sequence of dopamine transporter (Q01959 whole entry): as above

[5] = human HEK-293 cell lines, read-out: 5-HT Uptake, Functional Assays (antagonism, EC50)
[6] = displacement of serotonin ligands in vitro, read-out: 5-HT Uptake, Uptake Profile (IC50)
[7] = read-out: NE Uptake, Uptake Profile (IC50)
[8] = DA Uptake, Uptake Profile (IC50, nM), displacement of dopamine ligands in vitro
[9] = NE Uptake, Uptake Profile (IC50, nM)
[10] = 5-HT Uptake, Uptake Profile (IC50, nM)

T1 sequence (P23975 whole entry): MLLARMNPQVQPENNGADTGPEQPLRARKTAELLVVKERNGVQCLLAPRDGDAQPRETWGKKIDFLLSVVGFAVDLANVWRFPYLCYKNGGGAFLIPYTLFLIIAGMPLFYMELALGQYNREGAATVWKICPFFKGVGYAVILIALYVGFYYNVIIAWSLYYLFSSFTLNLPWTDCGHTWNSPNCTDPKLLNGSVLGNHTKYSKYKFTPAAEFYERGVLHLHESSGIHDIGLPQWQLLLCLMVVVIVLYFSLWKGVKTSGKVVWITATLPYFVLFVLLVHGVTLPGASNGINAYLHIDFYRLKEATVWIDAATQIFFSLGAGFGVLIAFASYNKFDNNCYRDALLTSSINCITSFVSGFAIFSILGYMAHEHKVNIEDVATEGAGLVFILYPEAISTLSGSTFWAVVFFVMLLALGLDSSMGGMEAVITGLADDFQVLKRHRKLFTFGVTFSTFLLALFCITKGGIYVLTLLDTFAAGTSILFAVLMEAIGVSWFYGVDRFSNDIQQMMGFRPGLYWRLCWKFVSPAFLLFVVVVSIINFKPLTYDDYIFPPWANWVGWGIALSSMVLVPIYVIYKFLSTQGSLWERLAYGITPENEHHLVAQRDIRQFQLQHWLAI

SMILES | EC50 [1] | EC50 (DAT) | IC50 (serotonin transporter [3]; [6]) | IC50 (dopamine transporter; [8]) | IC50 [4, 9] | other results
OC(CN1CCCC(COc2ccc(C(F)(F)F)cc2)C1)C1(c2ccccc2OC(F)(F)F)CCC1 (single isomer, unassigned) [compound 224, 1-[1-(2-Trifluoromethoxy-phenyl)-cyclobutyl]-2-[3-(4-trifluoromethyl-phenoxymethyl)-piperidin-1-yl]-ethanol] | > 1000 nM | > 1000 nM | > 1000 nM | > 1000 nM | – | EC50 (serotonin transporter [2]; [5]): < 1000 nM; IC50 [4, 7]: > 1000 nM
Fc1ccc(OCC2CCCN(CC3(c4ccc(Cl)cc4)CCC3)C2)cc1 (stereo not shown) [compound 86, 1-[1-(4-Chloro-phenyl)-cyclobutylmethyl]-3-(4-fluoro-phenoxmethyl)-piperidine] | < 1000 nM | < 10 nM | < 1000 nM | < 100 nM | < 1000 nM | EC50 (serotonin transporter [2]; [5]): < 1000 nM
OC(CN1CCC[C@@H](CCc2ccccc2)C1)c1ccc(Cl)cc1 (stereo partly shown) [compound 233] | < 10 nM | < 10 nM | < 10 nM | < 10 nM | < 100 nM | EC50 (serotonin transporter [2]; [5]): < 10 nM
O=C(CN1CCC[C@H](COc2ccc(C(F)(F)F)cc2)C1)C1(c2ccc(Cl)cc2)CCC1 [compound 123, S-1-[1-(4-Chloro-phenyl)-cyclobutyl]-2-[3-(4-trifluoromethyl-phenoxymethyl)-piperidin-1-yl]-ethanone] | < 1000 nM | < 10 nM | < 1000 nM | < 10 nM | < 1000 nM | EC50 (serotonin transporter [2]; [5]): < 1000 nM
Clc1ccc(C2(CN3CCC[C@@H](CNc4ccccc4)C3)CCC2)cc1 [compound 28, {1-[1-(4-Chloro-phenyl)-cyclobutylmethyl]-piperidin-3-R-ylmethyl}-phenyl-amine] | < 1000 nM | < 100 nM | < 1000 nM | < 1000 nM | < 1000 nM | EC50 (serotonin transporter [2]; [5]): < 1000 nM
CC(Oc1ccc(C(F)(F)F)cc1)C1CCCN(CC2(c3ccc(Cl)cc3)CCC2)C1 (stereo not shown) [compound 99, 1-[1-(4-chloro-phenyl)-cyclobutylmethyl]-3-[1-(4-trifluoromethyl-phenoxy)-ethyl]-piperidine] | < 1000 nM | < 10 nM | < 1000 nM | < 100 nM | < 1000 nM | EC50 (serotonin transporter [2]; [5]): > 1000 nM
O=C(CN1CCC[C@@H](COc2ccc(C(F)(F)F)cc2)C1)C1(c2ccc(Cl)cc2)CCC1 [compound 128, S-1-[1-(4-Chloro-phenyl)-cyclobutyl]-2-[3-(4-trifluoromethyl-phenoxymethyl)-piperidin-1-yl]-ethanone] | < 1000 nM | < 10 nM | < 1000 nM | < 100 nM | < 1000 nM | EC50 (serotonin transporter [2]; [5]): < 1000 nM
FC(F)(F)c1ccc(OCC2CN(CC3(c4ccc(Cl)cc4)CCC3)CCO2)cc1 (stereo not shown) [compound 102] | < 10 nM | < 10 nM | – | < 100 nM | > 1000 nM | EC50 (serotonin transporter [2]; 5-HT Uptake, Functional Assays (antagonism, EC50, nM)): > 1000 nM; IC50 (serotonin transporter [3]; [10]): > 1000 nM
CC(CN1CCCC(COc2ccc(C(F)(F)F)cc2)C1)C(O)c1ccc(Cl)cc1 (stereo not shown) [compound 218, 1-(4-Chloro-phenyl)-2-methyl-3-[3-(4-trifluoromethyl-phenoxymethyl)-piperidin-1-yl]-propan-1-ol] | – | – | < 1000 nM | < 10 nM | > 1000 nM | –
OC(CN1CCCC(COc2ccc(C(F)(F)F)cc2)C1)C1(c2ccccc2OC(F)(F)F)CCC1 (single isomer, unassigned) [compound 227, 1-[1-(2-Trifluoromethoxy-phenyl)-cyclobutyl]-2-[3-(4-trifluoromethyl-phenoxymethyl)-piperidin-1-yl]-ethanol] | – | – | < 1000 nM | < 1000 nM | > 1000 nM | –
CC(C)(CN1CCCC(CO)C1)c1ccc(Cl)cc1 (stereo not shown) [compound 80] | – | – | > 1000 nM | > 1000 nM | – | IC50 [4, 7]: > 1000 nM
CO[C@@H](CN1CCC[C@@H](COc2ccc(C(F)(F)F)cc2)C1)C1(c2ccc(Cl)cc2)CCC1 [compound 160] | – | – | < 1000 nM | < 100 nM | > 1000 nM | –
OC[C@H]1[C@@H](COc2ccc(C(F)(F)F)cc2)CCCN1CC1(c2ccc(Cl)cc2)CCC1 (racemic) [compound 82, cis-[1-[1-(4-chloro-phenyl)-cyclobutylmethyl]-3-(4-trifluoromethyl-phenoxymethyl)-piperidin-2-yl]-methanol] | < 1000 nM | < 100 nM | < 1000 nM | < 100 nM | < 1000 nM | –
FC(F)(F)c1ccc(OCC2CNCCCO2)cc1 (stereo not shown) [compound 15, 2-(4-trifluoromethyl-phenoxymethyl)-[1,4]oxazepane] | – | – | > 1000 nM | > 1000 nM | – | IC50 [4, 7]: > 1000 nM
FC(F)(F)c1ccc(OCC2CCCN(CC3(c4ccc(Cl)cc4)CCC3)C2)cc1 (stereo not shown) [compound 7] | – | < 100 nM | – | < 100 nM | > 1000 nM | IC50 (serotonin transporter [3]; [10]): > 1000 nM
OC1(COc2ccc(C(F)(F)F)cc2)CCCN(CC2(c3ccc(Cl)cc3)CCC2)C1 (stereo not shown) [compound 167, [1-(4-Chloro-phenyl)-cyclobutylmethyl]-3-(4-trifluoromethyl-phenoxymethyl)-piperidin-3-ol] | – | – | – | > 1000 nM | – | IC50 (serotonin transporter [3]; read-out: 5-HT Uptake, Uptake Profile (IC50)): > 1000 nM; IC50 [4, 7]: > 1000 nM
O=C(N1CCCOC(COc2ccc(C(F)(F)F)cc2)C1)C1(c2ccc(Cl)cc2)CCC1 (stereo not shown) [compound 16, [1-(4-Chloro-phenyl)-cyclobutyl]-[2-(4-trifluoromethyl-phenoxymethyl)-[1,4]oxazepan-4-yl]-methanone] | – | – | > 1000 nM | – | – | IC50 [4, 7]: > 1000 nM; IC50 (dopamine transporter): > 1000 nM
FC(F)(F)c1ccc(OCC2CCCN(CC3COc4ccccc4O3)C2)cc1 (single isomer, unassigned) [compound 177, 1-(2,3-Dihydro-benzo[1,4]dioxin-2-ylmethyl)-3-(4-trifluoromethyl-phenoxymethyl)-piperidine] | – | – | < 1000 nM | > 1000 nM | > 1000 nM | –
FC(F)(F)c1ccc(OCC2CCCN(CC3(c4ccc(Cl)cc4)CCOCC3)C2)cc1 (stereo not shown) [compound 159, 1-[4-(4-Chloro-phenyl)-tetrahydro-piran-4-ylmethyl]-3-(4-trifluoromethyl-phenoxymethyl)piperidine] | – | – | < 1000 nM | < 100 nM | < 1000 nM | –
OCC1CCCN(CC2(c3ccc(Cl)cc3)CCC2)C1 (stereo not shown) [compound 2] | – | < 100 nM | – | < 1000 nM | > 1000 nM | IC50 (serotonin transporter [3]; [10]): > 1000 nM
OC(CN1CCCC(CCc2ccc(C(F)(F)F)cc2)C1)c1ccc(Cl)cc1 (single isomer, unassigned) [compound 152, 1-(4-Chloro-phenyl)-2-{3-[2-(4-trifluoromethyl-phenyl)-ethyl]-piperidin-1-yl}-ethanol] | – | – | < 100 nM | < 1000 nM | < 1000 nM | –
FC(F)(F)c1ccc(COC2CCCN(CC3(c4ccc(Cl)cc4)CCC3)C2)cc1 (stereo not shown) [compound 107, 1-[1-(4-Chloro-phenyl)-cyclobutylmethyl]-3-(4-trifluoromethyl-benzyloxy)-piperidine] | – | – | > 1000 nM | < 1000 nM | < 1000 nM | –
O=C(CN1CCCC(CCc2ccc(C(F)(F)F)cc2)C1)C1(c2ccc(Cl)cc2)CCC1 (stereo not shown) [compound 155, 1-[1-(4-Chloro-phenyl)-cyclobutyl]-2-{3-[2-(4-trifluoromethyl-phenyl)-ethyl]-piperidin-1-yl}-ethanone] | – | – | > 1000 nM | < 100 nM | > 1000 nM | –
FC(F)(F)c1cc(COC2CCCN(CC3(c4ccc(Cl)cc4)CCC3)C2)cc(C(F)(F)F)c1 (stereo not shown) [compound 189, 3-(3,5-Bis-trifluoromethyl-benzyloxy)-1-[1-(4-chloro-phenyl)-cyclobutylmethyl]-piperidine] | – | – | > 1000 nM | > 1000 nM | – | IC50 [4, 7]: > 1000 nM
O=C(N1CCCC(CO)C1)C1(c2ccc(Cl)cc2)CCC1 (stereo not shown) [compound 1, [1-(4-chloro-phenyl)-cyclobutyl]-(3-hydroxymethylpiperidin-1yl)-methadone] | – | – | > 1000 nM | > 1000 nM | > 1000 nM | –
CC(C)(CN1CCC[C@@H](COc2ccc(C(F)(F)F)cc2)C1)c1ccc(Cl)cc1 [compound 122] | – | – | > 1000 nM | – | – | IC50 [4, 7]: > 1000 nM; IC50 (dopamine transporter; read-out: DA Uptake, Uptake Profile (IC50), displacement of dopamine ligands in vitro): < 1000 nM
FC(F)(F)c1ccc(OCC2CN(CC3(c4ccc(Cl)cc4)CCC3)C2)cc1 [compound 105, methanesulfonic acid 1-[1-(4-chloro-phenyl)-cyclobutylmethyl]-3-(4-trifluoromethyl-phenoxymethyl)-azetidine] | – | – | < 1000 nM | < 10 nM | < 100 nM | –
Fc1ccc(OC[C@@H]2CCCN(CC3(c4ccc(Cl)cc4)CCC3)C2)cc1 [compound 133, (R)-1-[1-(4-Chloro-phenyl)-cyclobutylmethyl]-3-(4-fluoro-phenoxymethyl)-piperidine] | – | – | – | < 1000 nM | < 1000 nM | IC50 (serotonin transporter [3]; [10]): > 1000 nM
O=C(CN1CCCC(COc2ccccc2)C1)C1(c2ccc(Cl)cc2)CCC1 (stereo not shown) [compound 20, 1-[1-(4-Chlorophenyl)cyclobutyl]-2-(3-phenoxymethylpiperidin-1-yl)ethanone] | – | – | < 1000 nM | < 1000 nM | < 1000 nM | –
CO[C@H](CN1CCC[C@@H](COc2ccc(C(F)(F)F)cc2)C1)C1(c2ccc(Cl)cc2)CCC1 [compound 161] | – | – | < 1000 nM | < 10 nM | < 1000 nM | –
